#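 The compound was tested at five concentrations on cells cultured in 96-well plates, with a 48-hour exposure period. Abbreviation: GI50, concentration required for 50% inhibition of growth.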 Activity calls are given as the source filed them. Rule as the data show it: active = GI50 up to about 1.1 µM and inactive = higher.
# Tests used:
# Test in all cases: NCI tumour cell line growth inhibition, 48 h
# [1] = test system: K562
# [2] = test system: OVCAR-4
# [3] = test system: 786-0
# [4] = test system: NCI-H460
# [5] = test system: HOP-62
# [6] = test system: NCI-H226
# [7] = test system: SK-MEL-2
# [8] = test system: SK-OV-3
# [9] = test system: MOLT-4
# [10] = test system: LOX IMVI
# [11] = test system: CCRF-CEM
# [12] = test system: SW-620
# [13] = test system: HCT-15
# [14] = test system: HT-29
# [15] = test system: SF-539
# [16] = test system: SR
Structure (SMILES),GI50 [1],GI50 [2],GI50 [3],GI50 [4],GI50 [5],GI50 [6],GI50 [7],GI50 [8],GI50 [9],GI50 [10],GI50 [11],GI50 [12],GI50 [13] [µM],GI50 [14],GI50 [15],GI50 [16]
COc1cc2c(cc1OC)C(C(=O)c1cccc(OC)c1OC)C(=O)N(C)CC2 (stereo not drawn),> 100 µM (inactive),> 100 µM (inactive),> 100 µM (inactive),> 100 µM (inactive),> 100 µM (inactive),> 100 µM (inactive),> 100 µM (inactive),> 100 µM (inactive),> 100 µM (inactive),> 100 µM (inactive),> 100 µM (inactive),> 100 µM (inactive),> 100,> 100 µM (inactive),–,–
O=C(c1ccccn1)c1nc(-c2ccc(Cl)c(Cl)c2)nc2ccc(Cl)cc12,92 µM (inactive),40.2 µM (inactive),44.6 µM (inactive),50.4 µM (inactive),21.3 µM (inactive),23.1 µM (inactive),34.3 µM (inactive),36.4 µM (inactive),58.6 µM (inactive),–,71.1 µM (inactive),> 100 µM (inactive),39.2,> 100 µM (inactive),18.1 µM (inactive),–
COc1ccc(OCC(=O)O)c2c1CCCC2=O,> 100 µM (inactive),> 100 µM (inactive),> 100 µM (inactive),> 100 µM (inactive),> 100 µM (inactive),64.6 µM (inactive),> 100 µM (inactive),> 100 µM (inactive),> 100 µM (inactive),> 100 µM (inactive),> 100 µM (inactive),> 100 µM (inactive),> 100,> 100 µM (inactive),> 100 µM (inactive),> 100 µM (inactive)
ONc1ncnc2[nH]cnc12,64.4 µM (inactive),> 100 µM (inactive),> 100 µM (inactive),> 100 µM (inactive),> 100 µM (inactive),> 100 µM (inactive),> 100 µM (inactive),–,> 100 µM (inactive),–,> 100 µM (inactive),> 100 µM (inactive),> 100,> 100 µM (inactive),> 100 µM (inactive),> 100 µM (inactive)
O=C(NC12CC3CC(CC(C3)C1)C2)C(=O)c1c[nH]c2ccc(Br)cc12,8.39 µM (inactive),14 µM (inactive),7.13 µM (inactive),10.2 µM (inactive),7.06 µM (inactive),20.2 µM (inactive),56.9 µM (inactive),25.9 µM (inactive),5.41 µM (inactive),5.25 µM (inactive),3.86 µM (inactive),25 µM (inactive),5.79,3.71 µM (inactive),19 µM (inactive),10 µM (inactive)
Nc1ccn([C@@H]2C[C@H](CO)[C@@H](O)[C@H]2O)c(=O)n1,> 57.7 µM (inactive),> 57.7 µM (inactive),> 57.7 µM (inactive),> 57.7 µM (inactive),> 57.7 µM (inactive),> 57.7 µM (inactive),> 57.7 µM (inactive),> 57.7 µM (inactive),> 57.7 µM (inactive),–,–,> 57.7 µM (inactive),> 57.7,–,> 57.7 µM (inactive),> 57.7 µM (inactive)
COc1ccc(OC)c2[s+]snc12,34.5 µM (inactive),60.4 µM (inactive),> 100 µM (inactive),36.6 µM (inactive),> 100 µM (inactive),> 100 µM (inactive),33.8 µM (inactive),> 100 µM (inactive),70.8 µM (inactive),35.6 µM (inactive),36.1 µM (inactive),68.2 µM (inactive),–,> 100 µM (inactive),21.4 µM (inactive),64.9 µM (inactive)
COc1cc2c(c(OC)c1)C1(CC(CC#N)C2)SCCS1 (stereo not drawn),> 100 µM (inactive),> 100 µM (inactive),> 100 µM (inactive),> 100 µM (inactive),> 100 µM (inactive),> 100 µM (inactive),> 100 µM (inactive),> 100 µM (inactive),> 100 µM (inactive),–,> 100 µM (inactive),> 100 µM (inactive),> 100,–,> 100 µM (inactive),–
CC1=C(C(=O)Nc2cc(=O)n(C)c(=O)n2C)C(c2ccco2)C(C(=O)Nc2cc(=O)n(C)c(=O)n2C)=C(C)N1,> 100 µM (inactive),> 100 µM (inactive),> 100 µM (inactive),> 100 µM (inactive),41.5 µM (inactive),> 100 µM (inactive),> 100 µM (inactive),–,> 100 µM (inactive),> 100 µM (inactive),> 100 µM (inactive),> 100 µM (inactive),–,> 100 µM (inactive),> 100 µM (inactive),–
CC1CCSC(N(C(=O)N(C)c2ccccc2)c2ccccc2)=N1 (stereo not drawn),> 100 µM (inactive),–,> 100 µM (inactive),> 100 µM (inactive),> 100 µM (inactive),74.1 µM (inactive),> 100 µM (inactive),> 100 µM (inactive),> 100 µM (inactive),> 100 µM (inactive),> 100 µM (inactive),> 100 µM (inactive),> 100,> 100 µM (inactive),> 100 µM (inactive),–
COc1ccc(C2CC(=O)c3c(O)cc(O)cc3O2)cc1O (stereo not drawn),28.8 µM (inactive),65.2 µM (inactive),> 100 µM (inactive),> 100 µM (inactive),> 100 µM (inactive),> 100 µM (inactive),> 100 µM (inactive),> 100 µM (inactive),> 100 µM (inactive),> 100 µM (inactive),> 100 µM (inactive),> 100 µM (inactive),> 100,> 100 µM (inactive),> 100 µM (inactive),–
COC(=O)CSc1nnc(-c2ccc(O)c([N+](=O)[O-])c2)[nH]1,> 100 µM (inactive),> 100 µM (inactive),> 100 µM (inactive),> 100 µM (inactive),–,> 100 µM (inactive),> 100 µM (inactive),–,> 100 µM (inactive),> 100 µM (inactive),> 100 µM (inactive),> 100 µM (inactive),> 100,> 100 µM (inactive),> 100 µM (inactive),> 100 µM (inactive)
Fc1cccc2cc3ccc4cccc5ccc(c12)c3c45,> 100 µM (inactive),> 100 µM (inactive),> 100 µM (inactive),–,> 100 µM (inactive),7.66 µM (inactive),–,0.771 µM (active),> 100 µM (inactive),> 100 µM (inactive),> 100 µM (inactive),> 100 µM (inactive),–,> 100 µM (inactive),> 100 µM (inactive),0.0146 µM (active)
COC(=O)C(=O)C(C#N)c1cccc2ccccc12 (stereo not drawn),> 100 µM (inactive),> 100 µM (inactive),> 100 µM (inactive),–,> 100 µM (inactive),> 100 µM (inactive),–,> 100 µM (inactive),> 100 µM (inactive),> 100 µM (inactive),> 100 µM (inactive),> 100 µM (inactive),> 100,> 100 µM (inactive),> 100 µM (inactive),> 100 µM (inactive)

# — ChEMBL document CHEMBL1201862, “PubChem BioAssay data set” (2004)
